# In US11826351B2, “Compounds useful as kinase inhibitors” (Loxo Oncology, Inc., priority 2015, dated 2023):
# Read-outs that look alike come from different tables or passages of the source.
# Legend:
# [1] = test system: OCI-Ly10 human DLBCL cells; assay: OCI-Ly10 anti-proliferative activity (Resazurin); type: cell-based; conditions: OCI-Ly10 cells, 72 h compound treatment, Resazurin, read-out: Proliferation Assay OCI-Ly10-20% FBS
# How it was run: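 A separate untreated plate gave the Day 0 reading, measured by Resazurin fluorescence at 590 nm after 5 h. The average Day 0 value was subtracted from each treated well, and results were expressed as percent of DMSO control. IC50 values came from a log[Inhibitor] vs response Variable Slope fit in Graphpad prism.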
# [2] = molecular target: T1, Recombinant BTK^WT kinase (Homo sapiens, UniProt Q06187); assay: BTK WT binding affinity (LanthaScreen TR-FRET); conditions: Kinase Tracer 236, 5 h incubation
# T1 construct: purchased Invitrogen
# T1 sequence (Q06187 whole entry): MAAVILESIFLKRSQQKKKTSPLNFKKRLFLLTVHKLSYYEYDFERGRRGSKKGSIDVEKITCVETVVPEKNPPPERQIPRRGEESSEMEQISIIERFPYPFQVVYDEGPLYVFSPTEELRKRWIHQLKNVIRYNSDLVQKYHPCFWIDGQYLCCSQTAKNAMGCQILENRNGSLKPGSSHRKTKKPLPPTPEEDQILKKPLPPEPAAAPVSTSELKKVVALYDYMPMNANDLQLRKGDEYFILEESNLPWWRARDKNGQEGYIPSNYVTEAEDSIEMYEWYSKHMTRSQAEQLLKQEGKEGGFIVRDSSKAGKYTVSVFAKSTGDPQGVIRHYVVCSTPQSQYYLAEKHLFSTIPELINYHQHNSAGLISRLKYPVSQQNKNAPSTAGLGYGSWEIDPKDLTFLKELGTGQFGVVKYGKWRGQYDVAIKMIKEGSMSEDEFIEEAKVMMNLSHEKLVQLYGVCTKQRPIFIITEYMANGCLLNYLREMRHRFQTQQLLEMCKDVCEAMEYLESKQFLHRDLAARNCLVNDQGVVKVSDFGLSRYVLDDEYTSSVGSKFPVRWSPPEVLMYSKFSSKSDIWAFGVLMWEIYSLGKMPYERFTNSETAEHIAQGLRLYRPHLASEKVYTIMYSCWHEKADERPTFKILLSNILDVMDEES
# How it was run: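 IC50 obtained by variable-slope fit of TR-FRET signal (ex 340 nm; em 615 and 665 nm) versus inhibitor concentration. Reaction held for 5 h in LanthaScreen Kinase Buffer A with 2.5 nM His-tagged BTK^WT, 15 nM Kinase Tracer 236 and 2 nM Eu anti-His antibody.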
# [3] = molecular target: T2, Recombinant BTK^C481S kinase (Homo sapiens, UniProt Q06187, C481S); assay: BTK C481S binding affinity (LanthaScreen TR-FRET); conditions: Kinase Tracer 236, 5 h incubation
# T2 construct: purchased SignalChem
# T2 sequence (Q06187 whole entry C481S): as the sequence (Q06187 whole entry) above, with C481S counted along it
# How it was run: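 BTK C481S tracer-displacement TR-FRET: 5 nM His-tagged kinase, 2 nM Eu anti-His antibody and 30 nM Kinase Tracer 236 incubated with titrated inhibitor for 5 h in Kinase Buffer A. Read at 340 nm excitation, 615/665 nm emission; IC50 from variable-slope log[inhibitor]–response fit.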
# Recombinant EGFR = molecular target: T3, Recombinant EGFR (Homo sapiens, UniProt P00533); assay: EGFR binding affinity (LanthaScreen TR-FRET); conditions: Kinase Tracer 199, 5 h incubation
# T3 construct: purchased Invitrogen
# T3 sequence (P00533 25-1210): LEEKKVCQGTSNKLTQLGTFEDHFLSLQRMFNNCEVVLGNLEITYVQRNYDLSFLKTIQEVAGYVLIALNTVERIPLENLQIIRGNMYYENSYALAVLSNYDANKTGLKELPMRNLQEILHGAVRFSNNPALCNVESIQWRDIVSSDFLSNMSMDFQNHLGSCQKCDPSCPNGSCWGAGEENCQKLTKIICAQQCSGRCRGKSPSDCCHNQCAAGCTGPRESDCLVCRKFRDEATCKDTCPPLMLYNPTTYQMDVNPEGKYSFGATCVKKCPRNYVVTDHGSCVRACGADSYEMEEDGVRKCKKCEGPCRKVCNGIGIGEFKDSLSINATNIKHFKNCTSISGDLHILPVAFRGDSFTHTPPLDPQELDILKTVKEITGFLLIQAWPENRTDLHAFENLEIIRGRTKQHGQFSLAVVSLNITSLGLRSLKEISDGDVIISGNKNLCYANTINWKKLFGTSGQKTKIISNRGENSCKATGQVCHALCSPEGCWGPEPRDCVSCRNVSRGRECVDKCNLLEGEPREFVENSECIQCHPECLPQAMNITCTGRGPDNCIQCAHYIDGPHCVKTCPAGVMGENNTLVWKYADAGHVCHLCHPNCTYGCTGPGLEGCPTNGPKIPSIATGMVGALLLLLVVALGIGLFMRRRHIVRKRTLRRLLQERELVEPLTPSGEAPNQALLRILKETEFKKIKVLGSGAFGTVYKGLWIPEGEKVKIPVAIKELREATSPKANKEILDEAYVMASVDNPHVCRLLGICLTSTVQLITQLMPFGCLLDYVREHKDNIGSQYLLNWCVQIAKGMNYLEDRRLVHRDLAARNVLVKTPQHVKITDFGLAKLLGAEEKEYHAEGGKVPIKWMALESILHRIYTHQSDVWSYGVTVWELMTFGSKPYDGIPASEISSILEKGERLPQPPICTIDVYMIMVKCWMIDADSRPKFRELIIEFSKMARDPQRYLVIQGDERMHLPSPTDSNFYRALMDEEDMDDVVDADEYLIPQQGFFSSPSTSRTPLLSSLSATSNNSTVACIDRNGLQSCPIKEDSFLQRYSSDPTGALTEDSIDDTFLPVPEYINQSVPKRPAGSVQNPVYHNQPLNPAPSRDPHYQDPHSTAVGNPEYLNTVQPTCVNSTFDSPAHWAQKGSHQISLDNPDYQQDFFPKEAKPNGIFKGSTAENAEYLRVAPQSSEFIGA
# How it was run: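 Compounds were titrated against recombinant EGFR and binding was followed by LanthaScreen time-resolved FRET.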
SMILES,"IC50 ([1]; Homo sapiens, OCI-Ly10, 72 h)",IC50 [2],IC50 [3],IC50 (Recombinant EGFR),IC50 [1]
"COc1ccc(F)cc1C(=O)NCc1ccc(-c2nn(C(C3CCCC3)C(F)(F)F)c(N)c2C(N)=O)cc1 (centres unmarked) [Example 196, 5-Amino-1-(1-cyclopentyl-2,2,2-trifluoro-ethyl)-3-[4-[[(5-fluoro-2-methoxy-benzoyl)amino]methyl]phenyl]pyrazole-4-carboxamide]",0.1 to 1 µM,0.01 to 0.1 µM,0.01 to 0.1 µM,1 to 10 µM,
"COc1ccccc1C(=O)NCc1ccc(-c2nn(C3CCOC3)c(N)c2C(N)=O)cc1F (centres unmarked) [Example 109, 5-amino-3-[3-fluoro-4-[[(2-methoxybenzoyl)amino]methyl]phenyl]-1-tetrahydrofuran-3-yl-pyrazole-4-carboxamide]",0.1 to 1 µM,< 0.01 µM,< 0.01 µM,1 to 10 µM,
"COc1ccccc1C(=O)NCc1ccc(-c2nn(CCN3CCOCC3)c(N)c2C(N)=O)cc1 [Example 9, 5-Amino-3-[4-[[(2-methoxybenzoyl)amino]methyl]phenyl]-1-(2-morpholinoethyl)pyrazole-4-carboxamide]",0.1 to 1 µM,0.01 to 0.1 µM,0.01 to 0.1 µM,1 to 10 µM,
"COc1ccccc1C(=O)NCc1ccc(-c2nn(C3CCOC3C)c(N)c2C(N)=O)cc1 (single isomer, unassigned) [Example 77, 5-amino-3-[4-[[(2-methoxybenzoyl)amino]methyl]phenyl]-1-[2-methyltetrahydrofuran-3-yl]pyrazole-4-carboxamide]",,< 0.01 µM,< 0.01 µM,0.1 to 1 µM,0.01 to 0.1 µM
"COc1ccc(F)cc1C(=O)NCc1ccc(-c2nn(C3CCCOC3)c(N)c2C(N)=O)cc1 (centres unmarked) [Example 113, 5-amino-3-[4-[[(5-fluoro-2-methoxy-benzoyl)amino]methyl]phenyl]-1-tetrahydropyran-3-yl-pyrazole-4-carboxamide]",0.01 to 0.1 µM,< 0.01 µM,< 0.01 µM,1 to 10 µM,
"COc1ccccc1C(=O)NCc1ccc(-c2nn(C3CC(C)(C)OC3(C)C)c(N)c2C(N)=O)cc1 (centres unmarked) [Example 82, 5-amino-3-[4-[[(2-methoxybenzoyl)amino]methyl]phenyl]-1-(2,2,5,5-tetramethyltetrahydrofuran-3-yl)pyrazole-4-carboxamide]",1 to 10 µM,0.01 to 0.1 µM,0.01 to 0.1 µM,1 to 10 µM,
"COc1ccccc1C(=O)NCc1ccc(-c2nn(-c3ccc(C)cc3)c(N)c2C(N)=O)cc1 [Example 44, 5-amino-3-[4-[[(2-methoxybenzoyl)amino]methyl]phenyl]-1-(p-tolyl)pyrazole-4-carboxamide]",0.01 to 0.1 µM,< 0.01 µM,< 0.01 µM,0.1 to 1 µM,
"COc1ccccc1C(=O)NCc1ccc(-c2nn(C[C@@H]3CCCNC3)c(N)c2C(N)=O)cc1 [Example 38, 5-amino-3-[4-[[(2-methoxybenzoyl)amino]methyl]phenyl]-1-[[(3R)-3-piperidyl]methyl]pyrazole-4-carboxamide]",> 10 µM,> 10 µM,1 to 10 µM,> 10 µM,
"COc1ccccc1C(=O)NCc1ccc(-c2nn(C3CCCOC3)c(N)c2C(N)=O)c(F)c1F (centres unmarked) [Example 157, 5-amino-3-[2,3-difluoro-4-[[(2-methoxybenzoyl)amino]methyl]phenyl]-1-tetrahydropyran-3-yl-pyrazole-4-carboxamide]",0.01 to 0.1 µM,< 0.01 µM,< 0.01 µM,> 10 µM,
"CCN1CC(n2nc(-c3ccc(CNC(=O)c4cc(F)ccc4OC)cc3)c(C(N)=O)c2N)C(F)(F)C1 (centres unmarked) [Example 198, 5-Amino-1-(1-ethyl-4,4-difluoro-pyrrolidin-3-yl)-3-[4-[[(5-fluoro-2-methoxy-benzoyl)amino]methyl]phenyl]pyrazole-4-carboxamide]",0.01 to 0.1 µM,< 0.01 µM,< 0.01 µM,1 to 10 µM,
"COc1ccccc1C(=O)NCc1ccc(-c2nn(-c3cccc(C(F)(F)F)c3)c(N)c2C(N)=O)cc1 [Example 16, 5-Amino-3-[4-[[(2-methoxybenzoyl)amino]methyl]phenyl]-1-[3-(trifluoromethyl)phenyl]pyrazole-4-carboxamide]",0.1 to 1 µM,0.01 to 0.1 µM,< 0.01 µM,1 to 10 µM,
"COc1ccccc1C(=O)NCc1ccc(-c2nn(-c3cccnc3)c(N)c2C(N)=O)cc1 [Example 51, 5-amino-3-[4-[[(2-methoxybenzoyl)amino]methyl]phenyl]-1-(3-pyridyl)pyrazole-4-carboxamide]",0.01 to 0.1 µM,< 0.01 µM,< 0.01 µM,0.1 to 1 µM,
"COc1ccccc1C(=O)NCc1ccc(-c2nn(CC(F)(F)F)c(N)c2C(N)=O)cc1F [Example 129, 5-amino-3-[3-fluoro-4-[[(2-methoxybenzoyl)amino]methyl]phenyl]-1-(2,2,2-trifluoroethyl)pyrazole-4-carboxamide]",0.1 to 1 µM,< 0.01 µM,< 0.01 µM,1 to 10 µM,
"COc1ccc(F)cc1C(=O)NCc1ccc(-c2nn(C(C)C3CCOC3)c(N)c2C(N)=O)cc1 (mixture of isomers) [Example 172, 5-amino-3-[4-[[(5-fluoro-2-methoxy-benzoyl)amino]methyl]phenyl]-1-(1-tetrahydrofuran-3-ylethyl)pyrazole-4-carboxamide]",0.1 to 1 µM,< 0.01 µM,< 0.01 µM,1 to 10 µM,
"COc1ccccc1C(=O)NCc1ccc(-c2nn(C3CCC(C)(O)CC3)c(N)c2C(N)=O)cc1 (single isomer, unassigned) [Example 33, 5-Amino-1-(4-hydroxy-4-methyl-cyclohexyl)-3-[4-[[(2-methoxybenzoyl)amino]methyl]phenyl]pyrazole-4-carboxamide]",0.01 to 0.1 µM,< 0.01 µM,< 0.01 µM,0.1 to 1 µM,

# Further lines, results first:
"IC50 ([1]; Homo sapiens, OCI-Ly10, 72 h)",IC50 [2],IC50 [3],IC50 (Recombinant EGFR),IC50 [1],SMILES
0.01 to 0.1 µM,< 0.01 µM,< 0.01 µM,0.1 to 1 µM,,"COc1ccccc1C(=O)NCc1ccc(-c2nn(C3CCC(O)(C(F)(F)F)CC3)c(N)c2C(N)=O)cc1 (centres unmarked) [Example 65, 5-amino-1-[4-hydroxy-4-(trifluoromethyl)cyclohexyl]-3-[4-[[(2-methoxybenzoyl)amino]methyl]phenyl]pyrazole-4-carboxamide]"
0.01 to 0.1 µM,< 0.01 µM,< 0.01 µM,0.1 to 1 µM,,"COc1ccccc1C(=O)NCc1ccc(-c2nn(C3CCCC(C(=O)N(C)C)C3)c(N)c2C(N)=O)cc1 (single isomer, unassigned) [Example 70, 5-amino-1-[3-(dimethylcarbamoyl)cyclohexyl]-3-[4-[[(2-methoxybenzoyl)amino]methyl]phenyl]pyrazole-4-carboxamide]"
0.01 to 0.1 µM,< 0.01 µM,< 0.01 µM,1 to 10 µM,,"COc1ccc(F)cc1C(=O)NCc1ccc(-c2nn([C@@H]3CCOC3)c(N)c2C(N)=O)cc1 [Example 164, 5-amino-3-[4-[[(5-fluoro-2-methoxy-benzoyl)amino]methyl]phenyl]-1-[(3R)-tetrahydrofuran-3-yl]pyrazole-4-carboxamide]"
0.1 to 1 µM,< 0.01 µM,< 0.01 µM,0.1 to 1 µM,,"COc1ccccc1C(=O)NCc1ccc(-c2nn(C3CCOC(C(F)(F)F)C3)c(N)c2C(N)=O)cc1 (centres unmarked) [Example 111, 5-amino-3-[4-[[(2-methoxybenzoyl)amino]methyl]phenyl]-1-[2-(trifluoromethyl)tetrahydropyran-4-yl]pyrazole-4-carboxamide]"
0.1 to 1 µM,0.01 to 0.1 µM,0.01 to 0.1 µM,1 to 10 µM,,"COc1ccc(F)cc1C(=O)NCc1ccc(-c2nn(C(C(C)(C)C)C(F)(F)F)c(N)c2C(N)=O)cc1 (centres unmarked) [Example 194, 5-amino-1-[2,2-dimethyl-1-(trifluoromethyl)propyl]-3-[4-[[(5-fluoro-2-methoxy-benzoyl)amino]methyl]phenyl]pyrazole-4-carboxamide]"
0.01 to 0.1 µM,< 0.01 µM,< 0.01 µM,> 10 µM,,"COc1ccc(F)cc1C(=O)NCc1ccc(-c2nn(C3CCCOC3)c(N)c2C(N)=O)c(F)c1F (centres unmarked) [Example 159, 5-amino-3-[2,3-difluoro-4-[[(5-fluoro-2-methoxy-benzoyl)amino]methyl]phenyl]-1-tetrahydropyran-3-yl-pyrazole-4-carboxamide]"
0.01 to 0.1 µM,< 0.01 µM,< 0.01 µM,> 10 µM,,"COc1ccc(F)cc1C(=O)NCc1cc(F)c(-c2nn(C3CCCOC3)c(N)c2C(N)=O)cc1F (centres unmarked) [Example 149, 5-amino-3-[2,5-difluoro-4-[[(5-fluoro-2-methoxy-benzoyl)amino]methyl]phenyl]-1-tetrahydropyran-3-yl-pyrazole-4-carboxamide]"
1 to 10 µM,0.01 to 0.1 µM,0.01 to 0.1 µM,> 10 µM,,"COc1ccccc1C(=O)NCc1ccc(-c2nn(CCO)c(N)c2C(N)=O)cc1 [Example 31, 5-Amino-1-(2-hydroxyethyl)-3-[4-[[(2-methoxybenzoyl)amino]methyl]phenyl]pyrazole-4-carboxamide]"
